Assay results published in US20110003892A1, “ALL-TRANS RETINOID ESTERS AS ACTIVE PHARMACEUTICAL INGREDIENTS, ORAL AND TOPICAL DOSAGE FORM COMPOSITIONS THEREOF, AND METHODS OF TREATING SKIN CONDITIONS THEREOF” (priority 2008, published 2011).

Experiments:
RARs = details: Repa J J et al., 1993; cited from earlier work
Rhino mice = assay: Comedolytic effect in orally dosed Rhino mice (comedone area by histology); format: in vivo; details: oral treatment; for dose producing maximal reduction in comedone size as compared to the vehicle control: 24 days (FIG. 1); for reduction in comedone area: each retinoid alone, 24 days, various doses (FIG. 1)
Protocol: (§1) Animals and dose administration. Rhino mice 6-8 weeks old were orally dosed. The mice were dosed daily. The mice were weighed three times per week, and doses were adjusted weekly based on body weight. The oral formulation was made by mixing each API with Wesson® soybean oil. The oral dose was delivered to the back of the mouth of each mouse. Mice were sacrificed 4 hours after the final oral dose. At sacrifice, the dorsal skin was collected for histological studies.
Comedolytic effect. The extent of the comedolytic effect (i.e., efficacy) was assessed by measuring the average area of the comedones, whereby the smaller the area, the larger the effect and efficacy. The comedone area was determined by histological analysis of tissue sections. Skin was fixed overnight in 4% paraformaldehyde at 4° C. with gentle agitation, and the skin was dehydrated the next day in 100% methanol. Samples were embedded in paraffin and a qty. nine 10μ sections each spaced 150μ apart were prepared from each Rhino mouse. Five of the nine sections were digitally imaged (6× magnification) for comedone analysis using Metamorph Imaging Software (trace function).
The perimeter of each imaged comedone taken from the 5 sections was traced using a Wacom Intuos 3 Graphics Tablet interfaced with the software. The number of pixels representing each individual comedone area was obtained. The mean number of pixels per comedone was obtained for each Rhino mouse. For comedones that were completely healed (i.e., area=0), a pixel value approaching 0 (<10) was assessed. The individual comedone average for each mouse was used to calculate the treatment group mean. Results in the figures herein have been expressed in terms of mean±standard error of the mean.
Preparation of oral retinoid dosing formulations. A concentrated stock solution containing each retinoid was prepared in dichloromethane. The retinoid concentrated stock solution was diluted into ethanol. The concentration of retinoid in that diluted stock solution was determined spectrophotometrically, whereby the molar extinction coefficient=44,340 and λmax=350. The purity of the SB-RA, IPE-RA, IB-RA, and t-butyl RA was determined to be greater than 98% by HPLC. A predetermined volume of retinoid-containing solution was added to Wesson® oil, the sample was mixed, and the residual dichloromethane was removed by flushing the oil with argon for 2-3 hours under a vapor hood. The final dose was delivered orally using ≦50 μL of oil.

[1] = Body weight change from baseline in orally dosed Rhino mice; format: in vivo; details: oral treatment, 24 days, any dose of retinoid studied (FIG. 2)
Protocol: as §1

| Structure (SMILES) | binding to the RARs (RARs) | dose producing maximal reduction in comedone size as compared to the vehicle control (Rhino mice) | reduction in comedone area (Rhino mice) | % change from the starting baseline weight (overall group weight) [1] |
| --- | --- | --- | --- | --- |
| CC1=C(/C=C/C(C)=C/C=C/C(C)=C\C(=O)O)C(C)(C)CCC1 [13-cis retinoic acid] | does not bind | – | – | – |
| CC1=C(/C=C/C(C)=C/C=C/C(C)=C/C(=O)OCC(C)C)C(C)(C)CCC1 [IB-RA, All-trans-retinoic acid iso-butyl ester] | – | 26.2 μmole/kgBW | significant dose-dependent reduction | no significant reduction |
| CC1=C(/C=C/C(C)=C/C=C/C(C)=C/C(=O)OC(C)C)C(C)(C)CCC1 [IPE-RA, all-trans-retinoic acid iso-propyl ester] | – | 26.2 μmole/kgBW | significant dose-dependent reduction | no significant reduction |
| CCC(C)OC(=O)/C=C(C)/C=C/C=C(C)/C=C/C1=C(C)CCCC1(C)C (stereo not drawn) [SB-RA, all-trans-retinoic acid sec-butyl ester] | – | 26.2 μmole/kgBW | significant dose-dependent reduction | no significant reduction |
| CC1=C(/C=C/C(C)=C/C=C/C(C)=C/C(=O)OC(C)(C)C)C(C)(C)CCC1 [t-butyl-RA, all-trans-retinoic acid tert-butyl ester] | – | 166 μmole/kgBW | significant dose-dependent reduction | no significant reduction |
